# According to PMC9299836 (eLife, 2022):
# “And” between values parts separate entries of the source, which are not always exact repeats. Equal entries are not always repeated.
# Experiments:
# mGluR2 [1] = target: mGluR2 (Mus musculus, UniProt Q14BI2, A548F); assay: Live-cell FRET, azi-CRD (cysteine-rich domain) sensor in HEK293T cells; details: for Mean normalized FRET response, azi-CRD PAM DRC: glutamate + 10μM BINA, maximal response normalized to 1mM glutamate
# mGluR2 [2] = target: T1, mGluR2 (Mus musculus, UniProt Q14BI2); assay: Live-cell FRET, SNAP-m2 (VFT domain) inter-subunit sensor in HEK293T cells; details: for SNAP-m2 FRET response (PAM DRC): individual cells, normalized to 1mM glutamate;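 on all read-outs here: apparent FRET efficiency from whole-membrane ROIs of single cells, corrected for donor bleed-through and background, ΔFRET as treatment minus pretreatment signal, recorded at room temperature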
# mGluR2 [3] = target: mGluR2 (Mus musculus, UniProt Q14BI2, INS715F); assay: Live-cell FRET, azi-ECL2 (7TM domain, extracellular loop 2) sensor in HEK293T cells; details: for Mean normalized azi-ECL2 FRET response: glutamate + 10μM modulator, maximal response normalized to 1mM glutamate;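 on all read-outs here: Cy3/Cy5 click-labeled sensor, whole-membrane ROIs per cell, apparent FRET after bleed-through correction, ΔFRET as treatment minus pre-treatment signal, at room temperature, at least three biological replicates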
# mGluR2 [4] = target: T1, mGluR2; assay: Functional calcium imaging, SNAP-mGluR2 (no FLAG-tag) with chimeric G protein Gqo5 in HEK293T cells; assay type: cell-based; parameters: Full length mGluR2 construct with an amber codon (TAG) mutation of amino acid A548 (azi-CRD) or N-terminal SNAP-tag (SNAP-mGluR2); host or cells: HEK293T; details: for Intracellular Ca2+ Response (normalized to 1mM glutamate), Mean: Glutamate + 1μM BINA
# [5] = 10μM BINA, ([1 mM glutamate + modulator] - [1 mM glutamate]) × 100
# [6] = Glutamate + 10μM BINA, log[Glutamate] (M) -5.82391
# [7] = Glutamate + 10μM BINA, log[Glutamate] (M) -6.52288
# [8] = Glutamate + 10μM BINA, log[Glutamate] (M) -7
# [9] = Glutamate + 10μM BINA, log[Glutamate] (M) -7.30103
# [10] = Glutamate + 10μM BINA, log[Glutamate] (M) -7.69897
# T1 sequence (Q14BI2 19-872): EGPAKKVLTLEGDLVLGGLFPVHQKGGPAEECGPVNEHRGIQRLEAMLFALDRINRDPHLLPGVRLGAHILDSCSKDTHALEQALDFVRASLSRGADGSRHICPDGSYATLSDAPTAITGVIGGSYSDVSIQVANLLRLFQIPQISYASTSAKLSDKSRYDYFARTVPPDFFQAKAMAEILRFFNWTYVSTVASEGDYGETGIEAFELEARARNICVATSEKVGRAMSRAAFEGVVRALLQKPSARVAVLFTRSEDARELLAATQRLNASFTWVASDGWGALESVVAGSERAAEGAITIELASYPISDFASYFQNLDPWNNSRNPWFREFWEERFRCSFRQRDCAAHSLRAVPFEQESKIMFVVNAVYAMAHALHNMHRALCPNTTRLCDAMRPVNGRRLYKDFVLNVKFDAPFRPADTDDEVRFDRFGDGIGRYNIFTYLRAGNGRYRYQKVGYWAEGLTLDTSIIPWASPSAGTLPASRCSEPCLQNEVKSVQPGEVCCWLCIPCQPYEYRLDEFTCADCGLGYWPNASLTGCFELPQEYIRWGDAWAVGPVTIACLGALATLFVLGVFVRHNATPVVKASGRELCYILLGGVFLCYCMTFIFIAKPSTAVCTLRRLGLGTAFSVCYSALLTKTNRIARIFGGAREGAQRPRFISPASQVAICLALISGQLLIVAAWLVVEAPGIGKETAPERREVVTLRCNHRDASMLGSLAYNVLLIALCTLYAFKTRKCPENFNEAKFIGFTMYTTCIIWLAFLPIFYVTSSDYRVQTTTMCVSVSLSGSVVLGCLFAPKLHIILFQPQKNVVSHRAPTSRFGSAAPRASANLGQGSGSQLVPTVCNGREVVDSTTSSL
# mGluR2 (Mus musculus, UniProt Q14BI2, INS715F), sequence (Q14BI2 with tags, fused parts or gaps INS715F): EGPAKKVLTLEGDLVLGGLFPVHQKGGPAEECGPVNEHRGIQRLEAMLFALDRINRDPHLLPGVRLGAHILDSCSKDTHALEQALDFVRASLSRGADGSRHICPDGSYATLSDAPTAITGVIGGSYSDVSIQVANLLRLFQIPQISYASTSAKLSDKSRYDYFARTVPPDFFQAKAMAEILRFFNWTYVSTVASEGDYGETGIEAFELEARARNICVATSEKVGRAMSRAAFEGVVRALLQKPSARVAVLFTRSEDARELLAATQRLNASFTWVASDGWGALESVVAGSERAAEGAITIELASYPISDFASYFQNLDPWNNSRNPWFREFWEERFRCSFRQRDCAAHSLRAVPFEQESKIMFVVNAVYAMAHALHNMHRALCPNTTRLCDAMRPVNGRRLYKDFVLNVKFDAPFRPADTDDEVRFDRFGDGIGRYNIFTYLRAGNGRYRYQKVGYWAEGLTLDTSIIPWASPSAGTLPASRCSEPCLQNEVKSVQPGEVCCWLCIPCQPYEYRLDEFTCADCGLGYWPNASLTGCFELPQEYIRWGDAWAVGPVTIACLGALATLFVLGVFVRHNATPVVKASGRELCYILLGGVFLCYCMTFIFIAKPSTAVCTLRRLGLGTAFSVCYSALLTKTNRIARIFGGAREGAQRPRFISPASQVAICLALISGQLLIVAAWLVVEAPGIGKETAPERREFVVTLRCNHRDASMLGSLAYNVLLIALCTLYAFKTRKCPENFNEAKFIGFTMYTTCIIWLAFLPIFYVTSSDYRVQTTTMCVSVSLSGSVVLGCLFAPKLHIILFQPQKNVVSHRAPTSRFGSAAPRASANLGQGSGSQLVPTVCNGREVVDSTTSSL
# mGluR2 (Mus musculus, UniProt Q14BI2, A548F), sequence (Q14BI2 19-872 A548F): as the sequence (Q14BI2 19-872) above, with A530F counted along it
compound,measurement,setting,value
Cc1c(OCc2cccc(-c3ccc(C(=O)O)cc3)c2)cc2c(c1C)C(=O)C(C1CCCC1)C2 (stereo not drawn) [BINA],"azi-CRD - ΔEfficacy, Mean ΔEfficacy",mGluR2 [1]; [5],12.0943
same,"azi-CRD - ΔEfficacy, individual cell responses","mGluR2 [1]; 10μM BINA, single cells",23.3716 and 17.6357 and 26.8405 and 19.7115 and 27.7937 and 0.5839 and -1.206 and 0.442 and -6.324
same,Hill slope of glutamate titration,"mGluR2 [1]; azi-CRD sensor, + 10 μM modulator",1.16
same,Live-cell FRET max response normalized to 1mM glutamate,"mGluR2 [1]; azi-CRD sensor, Glutamate + 10μM BINA, individual values (N=9)",1.278 and 1.006 and 0.9879 and 1.004 and 0.9368 and 1.234 and 1.176 and 1.2684 and 1.197
same,Mean max response (normalized max ΔFRET),"mGluR2 [1]; azi-CRD, 1 mM glutamate + 10 μM modulator, normalized to 1 mM glutamate",1.12
same,Mean ΔPotency,"mGluR2 [1]; azi-CRD, 10μM modulator, (([modulator + glutamate]EC50 – [glutamate] EC50)/[glutamate] EC50) × 100",-86.2846
same,"ΔPotency, individual cell","mGluR2 [1]; azi-CRD, 10μM modulator, calculated from individual cell responses",-93.2892 and -92.5628 and -93.8686 and -95.6587 and -92.9779 and -84.725 and -80.1033 and -74.2586 and -75.6122 and -79.7897
same,"Mean normalized FRET response, azi-CRD PAM DRC",mGluR2 [1]; log[Glutamate] (M) -3,1.121
same,"Mean normalized FRET response, azi-CRD PAM DRC",mGluR2 [1]; log[Glutamate] (M) -4.1549,1.112
same,"Mean normalized FRET response, azi-CRD PAM DRC",mGluR2 [1]; log[Glutamate] (M) -4.52288,1.067
same,"Mean normalized FRET response, azi-CRD PAM DRC",mGluR2 [1]; log[Glutamate] (M) -5,1.001
same,"Mean normalized FRET response, azi-CRD PAM DRC",mGluR2 [1]; log[Glutamate] (M) -5.39794,0.8946
same,"Mean normalized FRET response, azi-CRD PAM DRC",mGluR2 [1]; log[Glutamate] (M) -5.82391,0.6333
same,"Mean normalized FRET response, azi-CRD PAM DRC",mGluR2 [1]; log[Glutamate] (M) -6.52288,0.1759
same,"Mean normalized FRET response, azi-CRD PAM DRC",mGluR2 [1]; log[Glutamate] (M) -7,0.038
same,"Mean normalized FRET response, azi-CRD PAM DRC",mGluR2 [1]; log[Glutamate] (M) -7.30103,0
same,"Mean normalized FRET response, azi-CRD PAM DRC",mGluR2 [1]; log[Glutamate] (M) -7.69897,0
same,"Mean normalized FRET response, azi-CRD PAM DRC",mGluR2 [1]; log[Glutamate] (M) -8,0
same,"SNAP-m2 - ΔEfficacy, Mean ΔEfficacy",mGluR2 [2]; [5],2.381
same,"SNAP-m2 - ΔEfficacy, individual cell responses","mGluR2 [2]; 10μM BINA, single cells",2.679 and 0.7326 and 0.3738 and 4.211 and 3.017 and 2.268 and 3.39
same,"SNAP-m2 FRET response (PAM DRC), Mean","mGluR2 [2]; Glutamate + 10μM BINA, log[Glutamate] (M) -3",-1.024
same,"SNAP-m2 FRET response (PAM DRC), Mean","mGluR2 [2]; Glutamate + 10μM BINA, log[Glutamate] (M) -4.1549",-1.044
same,"SNAP-m2 FRET response (PAM DRC), Mean","mGluR2 [2]; Glutamate + 10μM BINA, log[Glutamate] (M) -4.52288",-1.065
same,"SNAP-m2 FRET response (PAM DRC), Mean","mGluR2 [2]; Glutamate + 10μM BINA, log[Glutamate] (M) -5",-1.035
same,"SNAP-m2 FRET response (PAM DRC), Mean","mGluR2 [2]; Glutamate + 10μM BINA, log[Glutamate] (M) -5.39794",-0.9191
same,SNAP-m2 FRET response (PAM DRC),mGluR2 [2]; [6],-0.3851 and -0.8695 and -0.7127 and -0.7584 and -0.7474 and -0.9245 and -0.822 and -0.6977 and -0.989 and -0.9518 and -0.9499 and -0.2243 and -0.901 and -0.9622 and -1.01 and -0.9642 and -0.1942 and -0.3249 and -0.4164 and -0.506
same,"SNAP-m2 FRET response (PAM DRC), Mean",mGluR2 [2]; [6],-0.7275
same,SNAP-m2 FRET response (PAM DRC),mGluR2 [2]; [7],-0.06795 and -0.4149 and -0.3185 and -0.3338 and -0.3365 and -0.4306 and -0.3984 and -0.3309 and -0.4302 and -0.4616 and -0.4969 and -0.03041 and -0.4566 and -0.4789 and -0.4597 and -0.5155 and -0.05296 and -0.06597 and -0.09807 and -0.1208 and -0.3936 and -0.2233 and -0.4059
same,"SNAP-m2 FRET response (PAM DRC), Mean",mGluR2 [2]; [7],-0.3184
same,SNAP-m2 FRET response (PAM DRC),mGluR2 [2]; [8],-0.0453 and -0.1707 and -0.1814 and -0.1137 and 0 (10×) and -0.1874 and -0.2505 and -0.1579 and -0.1949 and -0.1703
same,"SNAP-m2 FRET response (PAM DRC), Mean",mGluR2 [2]; [8],-0.07748
same,SNAP-m2 FRET response (PAM DRC),mGluR2 [2]; [9],0 (16×) and -0.1321 and -0.1145 and -0.02457
same,"SNAP-m2 FRET response (PAM DRC), Mean",mGluR2 [2]; [9],-0.01427
same,SNAP-m2 FRET response (PAM DRC),mGluR2 [2]; [10],0
same,"SNAP-m2 FRET response (PAM DRC), Mean",mGluR2 [2]; [10],0
same,Mean max response (normalized max ΔFRET),"mGluR2 [2]; SNAP-m2, 1 mM glutamate + 10 μM modulator, normalized to 1 mM glutamate",1.02
same,Mean ΔPotency,"mGluR2 [2]; SNAP-m2, 10μM modulator, (([modulator + glutamate]EC50 – [glutamate] EC50)/[glutamate] EC50) × 100",-89.602
same,Mean ΔEfficacy,"mGluR2 [2]; SNAP-m2, 10μM modulator, ([1 mM glutamate + modulator] - [1 mM glutamate]) × 100",2.381
same,Hill slope of glutamate titration,"mGluR2 [2]; SNAP-m2 sensor, + 10 μM modulator",–1.24
same,Live-cell FRET max response normalized to 1mM glutamate,"mGluR2 [2]; SNAP-m2 sensor, Glutamate + 10μM BINA, individual values (N=7)",1.03 and 1.023 and 1.0339 and 1.027 and 1.007 and 1.004 and 1.042
same,"azi-ECL2 - ΔEfficacy, Mean ΔEfficacy",mGluR2 [3]; [5],42.1338
same,Mean ΔPotency,"mGluR2 [3]; 10μM modulator, (([modulator + glutamate]EC50 – [glutamate] EC50)/[glutamate] EC50) × 100",-51.0252
same,"ΔPotency, individual cell responses","mGluR2 [3]; 10μM modulator, single cells, (([modulator + glutamate]EC50 – [glutamate] EC50)/[glutamate] EC50) × 100",-59.4349 and -64.4751 and -43.9117 and -59.7874 and -53.4508 and -10.4259 and -42.6395 and -39.4154 and -48.6344 and -48.1424 and -33.877 and -32.3399 and -71.1589 and -70.5942 and -70.1728 and -67.9438
same,"ΔEfficacy, individual cell responses","mGluR2 [3]; 10μM modulator, single cells, ([1 mM glutamate + modulator] - [1 mM glutamate]) × 100",29.3333 and 34.3873 and 67.0103 and 45.1311 and 54.8496 and 47.8253 and 100.958 and 52.7779 and 75.0355 and 26.9064 and 8.621 and 25.7313 and 7.026 and 14.2809
same,Mean max response (normalized max ΔFRET),"mGluR2 [3]; azi-ECL2, 1 mM glutamate + 10 μM modulator, normalized to 1 mM glutamate",1.42
same,Hill slope of glutamate titration,"mGluR2 [3]; azi-ECL2 sensor, + 10 μM modulator",1.06
same,Mean normalized azi-ECL2 FRET response,mGluR2 [3]; log[Glutamate] (M) -3,1.421
same,Mean normalized azi-ECL2 FRET response,mGluR2 [3]; log[Glutamate] (M) -4.1549,1.469
same,Mean normalized azi-ECL2 FRET response,mGluR2 [3]; log[Glutamate] (M) -4.52288,1.344
same,Mean normalized azi-ECL2 FRET response,mGluR2 [3]; log[Glutamate] (M) -5,1.155
same,Mean normalized azi-ECL2 FRET response,mGluR2 [3]; log[Glutamate] (M) -5.39794,0.8858
same,Mean normalized azi-ECL2 FRET response,mGluR2 [3]; log[Glutamate] (M) -5.82391,0.584
same,Mean normalized azi-ECL2 FRET response,mGluR2 [3]; log[Glutamate] (M) -6.52288,0.1491
same,Mean normalized azi-ECL2 FRET response,mGluR2 [3]; log[Glutamate] (M) -7,0.03109
same,Mean normalized azi-ECL2 FRET response,mGluR2 [3]; log[Glutamate] (M) -7.30103,0.00416
same,Mean normalized azi-ECL2 FRET response,mGluR2 [3]; log[Glutamate] (M) -7.69897,0
same,"Intracellular Ca2+ Response, % 1mM Glutamate","mGluR2 [4]; 1mM Glutamate + 1uM BINA, individual experiments",150.888% and 116.9% and 139.124%
same,Mean ΔEfficacy of glutamate,"mGluR2 [4]; Ca2+ response, 1 mM glutamate + 1 μM modulator, ([1 mM glutamate + modulator] - [1 mM glutamate]) × 100",35.6375
same,"ΔEfficacy of glutamate, individual experiments","mGluR2 [4]; Ca2+ response, 1 mM glutamate + 1 μM modulator, single replicate",16.9004 and 39.1239 and 50.8883
same,Mean ΔPotency of glutamate,"mGluR2 [4]; Ca2+ response, glutamate + 1 μM modulator, (([modulator + glutamate]EC50 – [glutamate]EC50)/[glutamate]EC50) × 100",-89.8956
same,"ΔPotency of glutamate, individual experiments","mGluR2 [4]; Ca2+ response, glutamate + 1 μM modulator, single replicate",-90.1258 and -89.6956 and -89.8653
same,"Intracellular Ca2+ Response (normalized to 1mM glutamate), Mean",mGluR2 [4]; log[Glutamate] (M) -3,1.356
same,"Intracellular Ca2+ Response (normalized to 1mM glutamate), Mean",mGluR2 [4]; log[Glutamate] (M) -3.60206,1.413
same,"Intracellular Ca2+ Response (normalized to 1mM glutamate), Mean",mGluR2 [4]; log[Glutamate] (M) -4.1549,1.344
same,"Intracellular Ca2+ Response (normalized to 1mM glutamate), Mean",mGluR2 [4]; log[Glutamate] (M) -4.52288,1.309
same,"Intracellular Ca2+ Response (normalized to 1mM glutamate), Mean",mGluR2 [4]; log[Glutamate] (M) -5,1.259
same,"Intracellular Ca2+ Response (normalized to 1mM glutamate), Mean",mGluR2 [4]; log[Glutamate] (M) -5.39794,1.0353
same,"Intracellular Ca2+ Response (normalized to 1mM glutamate), Mean",mGluR2 [4]; log[Glutamate] (M) -5.82391,0.6392
same,"Intracellular Ca2+ Response (normalized to 1mM glutamate), Mean",mGluR2 [4]; log[Glutamate] (M) -6.52288,0.1098
same,"Intracellular Ca2+ Response (normalized to 1mM glutamate), Mean",mGluR2 [4]; log[Glutamate] (M) -7,0
same,"Intracellular Ca2+ Response (normalized to 1mM glutamate), Mean",mGluR2 [4]; log[Glutamate] (M) -7.30103,0
same,"Intracellular Ca2+ Response (normalized to 1mM glutamate), Mean",mGluR2 [4]; log[Glutamate] (M) -7.69897,0
